Test results: patent publication US5077195A, “Polypeptides complementary to peptides or proteins having an amino acid sequence or nucleotide coding sequence at least partially known and methods of design therefor” (Board of Reagents, The University of Texas System, priority 1986, dated 1991)
Values joined by “and” are separate entries in the source; they are usually repeats but may differ in a detail not shown here. Identical values can stand only once. Where no end group is shown, it is not given here.

Key:
angiotensin II receptors = assay: Binding of [^125 I] angiotensin II to isolated hepatic receptor; design: species or system Rabbit; conditions: concentration that inhibits binding of radiolabelled angiotensin II by 50%; 0.25 nM label; 60 minutes at 20° C.
Experimental: Rabbit livers were homogenized, and were centifuged in order to isolate particles sedimenting between 1,000 and 100,000 xg. Binding activity was solublized with 1% digitonin, followed by ammonium sulfate fractionation between 49 and 65% satuation followed by DEAE- cellulose chromatography at pH 7.5 using a linear gradient between 0.0 and 0.3M KCl.
The reaction is initiated by addition of the receptor and samples are incubated for 60 minutes at 20° C. The reaction is terminated with 1 ml of cold 0.5% charcoal/0.05% Dextran in 100 mM Tris-HCl, pH 7.5.
The complete system under these conditions regularly yields about 10,000 cpm of bound radioactivity.

HTCA = assay: ELISA binding of immunoglobulins to HTCA-coated plates; conditions: Plates coated with HTCA
Experimental: (§1) Two peptides complementary to ACTH, described in Examples 1B and 1C as HTCA and 3'-5' HTCA, were each coupled to Keyhole Limpet Hemocyanin (KLH) with glutaraldeyde (1 mg peptide, 1 mg KLH, 30 mM glutaraldehyde for 30 minutes at room temperature followed by dialysis) to prepare antigens for rabbit immunization. Two rabbits were injected separately with 250 ug of peptide-KLH antigens weekly for four weeks. Each rabbit was bled biweekly for three weeks following the last injection. Antibodies representing the total immunoglobulin from serum of each rabbit was purified by precipitation from serum with 50% saturated ammonium sulfate at 4° C. followed by standard ion exchange chromatography on a DEAE column.
To examine the binding of each of the immunoglobulins to each of the peptides, enzyme-linked immunosorbant assays were performed. In these assays, one of the complementary peptides was coated onto polycarbonate plates in a carbonate coating buffer at pH 9.0 overnight. Unbound peptide was removed by washing three times with phosphate buffered saline (PBS)-TWEEN 20. Various amounts of immunoglobulins were added to peptide-coated wells in PBS-TWEEN 20 solution and incubated for one hour. Unbound immunoglobulin was removed by washing with PBS-TWEEN 20. To each well was added a 1:300 dilution of goat anti-rabbit IgG coupled to alkaline phosphatase enzyme. After one hour the wells were washed with PBS-TWEEN 20 to remove unbound secondary antibodies. The amount of remaining secondary antibody was determined by reacting p-nitrophenyl phosphate with the remaining aklaline phosphatase enzyme for 15 minutes, stopping the reaction with 3M NaOH, and measuring nitrophenol produced spectrophotometrically at 490 nm.

3'-5' HTCA = assay: ELISA binding of immunoglobulins to 3'-5' HTCA-coated plates; conditions: Plates coated with 3'-5' HTCA; antibody 0.11 mg/ml
Experimental: as §1
To examine the binding of each of the immunoglobulins to each of the peptides, enzyme-linked immunosorbant assays were performed. In these assays, one of the complementary peptides was coated onto polycarbonate plates in a carbonate coating buffer at pH 9.0 overnight. Unbound peptide was removed by washing three times with phosphate buffered saline (PBS)-TWEEN 20. […] The amount of remaining secondary antibody was determined by reacting p-nitrophenyl phosphate with the remaining aklaline phosphatase enzyme for 15 minutes, stopping the reaction with 3M NaOH, and measuring nitrophenol produced spectrophotometrically at 490 nm.

^125 I-ACTH = target: T1, ^125 I-ACTH (Homo sapiens, UniProt P01189); assay: Solid-phase binding of ^125 I-ACTH to 5'-3' and 3'-5' complementary peptides
T1 construct: ACTH plates+immunized rabbit immunoglobulin
T1 sequence (P01189 138-176 limits assumed): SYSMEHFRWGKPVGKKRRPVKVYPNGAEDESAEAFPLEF
Experimental: A solid-phase binding assay was used to determine the ability of both the 5'-to-3' and the 3'-to-5'-complementary-RNA-strand peptides (see Examples 1A and 1C) to bind ^125 I-ACTH. The peptides were diluted in phosphate-buffered saline (140 mM-NaCl/3 mM-KCl/0.1% NaN3 /20 mM-phosphate buffer, pH 7.4) to 2 mg/ml, and 0.2 ml/well was placed into poly(vinyl chloride) micro-titre plates (Becton and Dickinson, Oxnard, CA, U.S.A.). After 18 h at 4° C., unbound peptide was removed by washing three times with phosphate-buffered saline containing 0.1% bovine serum albumin (Sigma Chemical Co., St. Louis, MO, U.S.A.). ^125 I-ACTH was diluted to various concentrations with phosphate-buffered saline containing 0.1% bovine serum albumin and incubated in peptide-coated wells for 60 minutes at 4° C. […] After incubation, unbound radiolabel was washed out with phosphate-buffered saline containing 0.1% bovine serum albumin, and the radioactivity of individual wells was measured by gamma-radiation counting. The amount of specifically bound radioactivity was determined by blocking ^125 I-ACTH binding with unlabelled ACTH. Additional controls included coating wells with insulin or bovine serum albumin (2 mg/ml) before the addition of the ^125 I-ACTH.

I^125 ACTH (1-39) = target: T2, I^125 ACTH (1-39) (Homo sapiens, UniProt P01189); assay: ^125 I-ACTH binding to peptide-coated microtiter wells
T2 construct: I^125 ACTH (1-39) (New England Nuclear Boston, MA); purchased New England Nuclear (Boston, MA)
T2 sequence (P01189 138-176 limits assumed): T1 sequence (P01189 138-176 limits assumed)
Experimental: Utilizing techniques described in Example 1B, polyvinyl microtiter wells were coated with 3'-5' HTCA from a 1 mM solution thereof or with BSA.
The BSA and 3'-5' HTCA coated wells were washed and then treated with one of three solutions of I^125 ACTH (1-39) (New England Nuclear Boston, MA) having different concentrations. After a forty five minute incubation period the solution was removed and the microtiter wells extensively washed. The microtiter wells were separated and assayed for iodine^125content in a Beckman Gamma 5500 gamma counter. Bound ^125 I-ACTH was measured in duplicate at three concentrations in the absence and presence of excess unlabelled ACTH.
Utilizing the cRNA sequence and HTCA sequence shown in Table 8 of Example 1A, a series of peptides having a carboxy-terminal portion of the HTCA amino acid were synthesized. A pentamer (5-mer) contained the amino acid sequence: H2 N-Phe-His-Gly-Val-Arg-COOH. A decamer (10-mer) contained the amino acid sequence: H2 N-[…]COOH. A twenty membered peptide (20-mer) contained the amino acids sequence: H2 N-[…] Val-Arg-COOH. Each of thes peptides was used to coat microtiter wells and the coated wells tested for the ability to bind ^125 I-ACTH as described in Example 1C.
A 24-mer HTCA variant (R-HTCA) with reversed amino acid sequence directionality (amino-terminal and carboxy-terminal ends being reversed) was synthesized and had the following sequence: H2 N-[…] Arg-His-Leu-His-Val-Gly-COOH. The well-coating and ^125 I-ACTH binding procedures were performed as described in Example 1-C and the resultant data shown in Table 11.

Substance | ID50 (angiotensin II receptors) | Absorbance at 490 nm (HTCA; antibody 0.04 mg/ml) | Absorbance at 490 nm (HTCA; antibody 0.11 mg/ml) | Absorbance at 490 nm (HTCA; antibody 0.3 mg/ml) | Absorbance at 490 nm (HTCA; antibody added 0.012 mg/ml) | Absorbance at 490 nm (3'-5' HTCA) | effectiveness in binding ACTH (in words) (^125 I-ACTH) | binding of ^125 I-ACTH to coated wells (in words) (I^125 ACTH (1-39)) | Bound CPM - ^125 I-ACTH (I^125 ACTH (1-39); 1:3 dilution ^125 I-ACTH) | Bound CPM - ^125 I-ACTH (I^125 ACTH (1-39); 1:3 dilution ^125 I-ACTH, + Excess ACTH) | Bound CPM - ^125 I-ACTH (I^125 ACTH (1-39); 1:9 dilution ^125 I-ACTH, + Excess ACTH) | Bound CPM - ^125 I-ACTH (I^125 ACTH (1-39); conc ^125 I-ACTH) | Bound CPM - ^125 I-ACTH (I^125 ACTH (1-39); conc ^125 I-ACTH, + Excess ACTH)
Ac-KGVYIHAL-NH2 [CCA-AII (Ac, Am), Ac--LYS--GLY--VAL--TYR--ILE--HIS--ALA--LEU--Am] | 3,100 nM | – | – | – | – | – | – | – | – | – | – | – | –
RMRYLVKATPFGHPFFAAGHFHMG [3'-5' HTCA] | – | 0.24 ± 0.08 | 0.37 ± 0.09 | 0.91 ± 0.11 | 0.08 ± 0.04 | 0.89 ± 0.23 | equally effective in binding ACTH | binds to coated 3'-5' HTCA | 601 CPM and 590 CPM | 287 CPM and 299 CPM | 191 CPM and 183 CPM | 1819 CPM and 1716 CPM | 616 CPM and 615 CPM
